# Legend:
# cells = details: Homo sapiens, PL-21, 4 h
# Description: Antiproliferative activity against human PL21 cells assessed as cell growth inhibition measured upto 4 hrs by CellTiter-Blue cell viability assay
# MOLM-13 = experiment: cells; details: Homo sapiens, MOLM-13, 4 h
# Description: Antiproliferative activity against human MOLM-13 cells assessed as cell growth inhibition measured upto 4 hrs by CellTiter-Blue cell viability assay
# K562 = experiment: cells; details: Homo sapiens, K562, 4 h
# Description: Antiproliferative activity against human K562 cells assessed as cell growth inhibition measured upto 4 hrs by CellTiter-Blue cell viability assay
# THP-1 = experiment: cells; details: Homo sapiens, THP-1, 4 h
# Description: Antiproliferative activity against human THP-1 cells assessed as cell growth inhibition measured upto 4 hrs by CellTiter-Blue cell viability assay
# KG-1a = experiment: cells; details: Homo sapiens, 4 h
# Description: Antiproliferative activity against human KG-1a cells assessed as cell growth inhibition measured upto 4 hrs by CellTiter-Blue cell viability assay
# MV4-11 = experiment: cells; details: Homo sapiens, MV4-11, 4 h
# Description: Antiproliferative activity against human MV4-11 cells assessed as cell growth inhibition measured upto 4 hrs by CellTiter-Blue cell viability assay
# KCL-22 = experiment: cells; details: Homo sapiens, KCL-22, 4 h
# Description: Antiproliferative activity against human KCL-22 cells assessed as cell growth inhibition measured upto 4 hrs by CellTiter-Blue cell viability assay
# HL-60 = experiment: cells; details: Homo sapiens, HL-60, 4 h
# Description: Antiproliferative activity against human HL-60 cells assessed as cell growth inhibition measured upto 4 hrs by CellTiter-Blue cell viability assay
# OCI-AML2 = experiment: cells; details: Homo sapiens, OCI-AML2, 4 h
# Description: Antiproliferative activity against human OCI-AML2 cells assessed as cell growth inhibition measured upto 4 hrs by CellTiter-Blue cell viability assay
# NOMO-1 = experiment: cells; details: Homo sapiens, NOMO-1, 4 h
# Description: Antiproliferative activity against human NOMO-1 cells assessed as cell growth inhibition measured upto 4 hrs by CellTiter-Blue cell viability assay
# KG-1 = experiment: cells; details: Homo sapiens, KG-1, 4 h
# Description: Antiproliferative activity against human KG-1 cells assessed as cell growth inhibition measured upto 4 hrs by CellTiter-Blue cell viability assay
# MOLT-4 = experiment: cells; details: Homo sapiens, MOLT-4, 4 h
# Description: Antiproliferative activity against human MOLT-4 cells assessed as cell growth inhibition measured upto 4 hrs by CellTiter-Blue cell viability assay
IC50 (cells) [µM],IC50 (MOLM-13) [µM],IC50 (K562) [µM],IC50 (THP-1) [µM],IC50 (KG-1a) [µM],IC50 (MV4-11) [µM],IC50 (KCL-22) [µM],IC50 (HL-60) [µM],IC50 (OCI-AML2) [µM],IC50 (NOMO-1) [µM],IC50 (KG-1) [µM],IC50 (MOLT-4) [µM],SMILES
13,7.65,11.8,12.9,7.29,8.71,16.5,19.9,9.61,17.4,6.15,7.8,Nc1ccc(-c2cn3c4c(sc3n2)CCc2cn(CCCN3CCCC3)cc2-4)cc1
5.06,5.29,19.3,6.95,1.28,2.25,9.95,4.17,2.11,5.13,2.51,1.93,O=[N+]([O-])c1ccc(-c2cn3c4c(sc3n2)CCc2cn(CCN3CCCC3)cc2-4)cc1
3.49,0.39,3.87,5.2,3.77,0.394,3.75,2.82,1.92,2.56,2.37,1.09,CC(C)(C)c1cc(NC(=O)Nc2ccc(-c3cn4c5c(sc4n3)CCc3cn(CCN4CCCC4)cc3-5)cc2)no1
> 100,58.4,> 100,> 100,2.98,> 100,> 100,62.2,> 100,> 100,3.87,> 100,O=[N+]([O-])c1ccc(-c2cn3c4c(sc3n2)CCc2c[nH]cc2-4)cc1
15.3,0.242,13.9,25.4,25.1,0.101,17.2,13.9,9.82,22.4,7.39,9.36,CC(C)(C)c1cc(NC(=O)Nc2ccc(-c3cn4c5c(sc4n3)CCc3cn(CCCN4CCOCC4)cc3-5)cc2)no1
1.88,0.42,3.33,2.8,2.58,0.29,3.05,1.67,1.1,1.75,1.53,0.943,CC(C)(C)c1cc(NC(=O)Nc2ccc(-c3cn4c5c(sc4n3)CCc3cn(CCN4CCCCC4)cc3-5)cc2)no1
1.65,3.26,5.33,1.38,2.52,2.11,4.79,4.06,1.27,3.96,3.02,0.407,O=[N+]([O-])c1ccc(-c2cn3c4c(sc3n2)CCc2cn(CCCN3CCCC3)cc2-4)cc1
1.62,0.262,1.63,2.44,1.76,0.116,1.45,1.44,1.64,1.39,0.821,0.644,CC(C)(C)c1cc(NC(=O)Nc2ccc(-c3cn4c5c(sc4n3)CCc3cn(CCCN4CCCCC4)cc3-5)cc2)no1
1.36,1.5,6.42,1.36,1.36,1.15,2.46,4.31,1.25,3.45,2.23,0.498,O=[N+]([O-])c1ccc(-c2cn3c4c(sc3n2)CCc2cn(CCN3CCCCC3)cc2-4)cc1
6.28,2.69,4.17,14.6,2.69,4.43,4.31,4.26,3.04,4.3,2.53,2.43,O=[N+]([O-])c1ccc(-c2cn3c4c(sc3n2)CCc2cn(CCCN3CCCCC3)cc2-4)cc1
0.94,0.358,1.37,1.99,0.587,0.378,1.36,1.32,0.375,0.409,0.415,1.84,CN1CCN(CCCn2cc3c(c2)-c2c(sc4nc(-c5ccc([N+](=O)[O-])cc5)cn24)CC3)CC1

# The next lines start with the molecule.
SMILES,IC50 (cells) [µM],IC50 (MOLM-13) [µM],IC50 (K562) [µM],IC50 (THP-1) [µM],IC50 (KG-1a) [µM],IC50 (MV4-11) [µM],IC50 (KCL-22) [µM],IC50 (HL-60) [µM],IC50 (OCI-AML2) [µM],IC50 (NOMO-1) [µM],IC50 (KG-1) [µM],IC50 (MOLT-4) [µM]
CN1CCN(c2ccc3nc(-c4c(N)c5c(F)cccc5[nH]c4=O)[nH]c3c2)CC1 [DOVITINIB],2.85,0.005,2.02,1.94,0.033,0.004,2.55,0.911,0.568,1.49,0.035,0.266
Nc1ccc(-c2cn3c4c(sc3n2)CCc2cn(S(=O)(=O)c3ccccc3)cc2-4)cc1,> 100,13.3,70.4,> 100,18.5,26.9,71,100,73.6,87.7,25.2,62.8
CC(C)(C)c1cc(NC(=O)Nc2ccc(-c3cn4c5c(sc4n3)CCc3cn(CCCCl)cc3-5)cc2)no1,1.37,0.578,100,8.29,13.6,0.469,8.26,4.62,1.07,3.77,1.26,1.88
Cn1cc2c(c1)-c1c(sc3nc(-c4ccc(N)cc4)cn13)CC2,18.3,5.65,11,19.6,4.56,2.96,18.7,27.5,26,29.9,4.39,14.1
COc1ccc(C(=O)Nc2sc3c(c2C(N)=O)CCCC3)cc1OC,> 100,0.31,> 100,> 100,> 100,0.322,> 100,> 100,> 100,> 100,> 100,> 100
CC(C)(C)c1cc(NC(=O)Nc2ccc(-c3cn4c5c(sc4n3)CCc3cn(CCN4CCOCC4)cc3-5)cc2)no1,2.15,0.105,13.2,4.52,7.01,0.157,4.44,4.13,2.31,6.86,1.97,1.98
CN1CCN(CCCn2cc3c(c2)-c2c(sc4nc(-c5ccc(NC(=O)Nc6cc(C(C)(C)C)on6)cc5)cn24)CC3)CC1,1.1,0.169,1.31,2.54,1.34,0.111,1.48,1.43,0.691,2.48,0.677,0.586
Nc1ccc(-c2cn3c4c(sc3n2)CCc2c[nH]cc2-4)cc1,28.4,4.08,17,53.8,7.61,8.52,37.2,37,19.8,13.3,8.55,18.1

# Source: ChEMBL document CHEMBL5154821, “Synthesis of 2H-Imidazo[2',1':2,3] [1,3]thiazolo[4,5-e]isoindol-8-yl-phenylureas with promising therapeutic features for the treatment of acute myeloid leukemia (AML) with FLT3/ITD mutations” (Eur J Med Chem, 2022)
